Laboratory results as given in ChEMBL document CHEMBL1201862, “PubChem BioAssay data set” (2004).
Calls of active or inactive are those of the source.

Tests used:
[1] = target: T1, Tyrosyl-DNA phosphodiesterase 2 (Homo sapiens, UniProt O95551); assay: human TDP2 enzyme inhibitors, dose response, biochemical, epi absorbance, IC50 (AID 743297)
T1 sequence (O95551 whole entry): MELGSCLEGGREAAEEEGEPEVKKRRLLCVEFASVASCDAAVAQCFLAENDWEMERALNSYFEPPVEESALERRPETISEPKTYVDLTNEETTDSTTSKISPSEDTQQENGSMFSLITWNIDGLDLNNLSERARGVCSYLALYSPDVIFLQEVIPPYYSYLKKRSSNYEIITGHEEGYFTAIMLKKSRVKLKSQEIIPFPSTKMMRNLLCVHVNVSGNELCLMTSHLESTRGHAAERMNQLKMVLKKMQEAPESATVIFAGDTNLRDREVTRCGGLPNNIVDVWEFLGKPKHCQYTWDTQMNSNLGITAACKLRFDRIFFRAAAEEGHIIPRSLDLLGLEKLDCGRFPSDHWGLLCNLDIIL

[2] = target: Induced myeloid leukemia cell differentiation protein Mcl-1 (Homo sapiens, UniProt Q07820); type: functional
[3] = target: T2, Endoribonuclease toxin MazF (Escherichia coli K-12, UniProt P0AE70); assay: fluorescent RNA oligo signal without MazF, dose response, counter-screen for MazEF activator project, biochemical, fluorescence, single-stranded RNase substrate (AID 588502); type: functional
T2 sequence (P0AE70 whole entry): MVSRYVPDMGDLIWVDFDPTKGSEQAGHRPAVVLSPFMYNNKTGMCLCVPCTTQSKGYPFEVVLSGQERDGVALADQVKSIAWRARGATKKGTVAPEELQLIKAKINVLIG

Albumin = Albumin (Bos taurus, UniProt P02769); assay: Counterscreen for inhibitors of T-cell receptor (TCR)-CD3 interaction: Fluorescence-based biochemical high throughput dose response assay to identify inhibitors of T-cell receptor (TCR)-CD3 interaction using a TAMRA-labeled BSA probe.; type: functional
[4] = target: T3, 1-phosphatidylinositol 4,5-bisphosphate phosphodiesterase gamma-1 (Homo sapiens, UniProt P19174); assay: Counterscreen for inhibitors of phospholipase C isozymes (PLC-B3): Fluorescence-based biochemical high throughput dose response assay to identify inhibitors of phospholipase C isozymes (PLC-gamma1).
T3 sequence (P19174 whole entry): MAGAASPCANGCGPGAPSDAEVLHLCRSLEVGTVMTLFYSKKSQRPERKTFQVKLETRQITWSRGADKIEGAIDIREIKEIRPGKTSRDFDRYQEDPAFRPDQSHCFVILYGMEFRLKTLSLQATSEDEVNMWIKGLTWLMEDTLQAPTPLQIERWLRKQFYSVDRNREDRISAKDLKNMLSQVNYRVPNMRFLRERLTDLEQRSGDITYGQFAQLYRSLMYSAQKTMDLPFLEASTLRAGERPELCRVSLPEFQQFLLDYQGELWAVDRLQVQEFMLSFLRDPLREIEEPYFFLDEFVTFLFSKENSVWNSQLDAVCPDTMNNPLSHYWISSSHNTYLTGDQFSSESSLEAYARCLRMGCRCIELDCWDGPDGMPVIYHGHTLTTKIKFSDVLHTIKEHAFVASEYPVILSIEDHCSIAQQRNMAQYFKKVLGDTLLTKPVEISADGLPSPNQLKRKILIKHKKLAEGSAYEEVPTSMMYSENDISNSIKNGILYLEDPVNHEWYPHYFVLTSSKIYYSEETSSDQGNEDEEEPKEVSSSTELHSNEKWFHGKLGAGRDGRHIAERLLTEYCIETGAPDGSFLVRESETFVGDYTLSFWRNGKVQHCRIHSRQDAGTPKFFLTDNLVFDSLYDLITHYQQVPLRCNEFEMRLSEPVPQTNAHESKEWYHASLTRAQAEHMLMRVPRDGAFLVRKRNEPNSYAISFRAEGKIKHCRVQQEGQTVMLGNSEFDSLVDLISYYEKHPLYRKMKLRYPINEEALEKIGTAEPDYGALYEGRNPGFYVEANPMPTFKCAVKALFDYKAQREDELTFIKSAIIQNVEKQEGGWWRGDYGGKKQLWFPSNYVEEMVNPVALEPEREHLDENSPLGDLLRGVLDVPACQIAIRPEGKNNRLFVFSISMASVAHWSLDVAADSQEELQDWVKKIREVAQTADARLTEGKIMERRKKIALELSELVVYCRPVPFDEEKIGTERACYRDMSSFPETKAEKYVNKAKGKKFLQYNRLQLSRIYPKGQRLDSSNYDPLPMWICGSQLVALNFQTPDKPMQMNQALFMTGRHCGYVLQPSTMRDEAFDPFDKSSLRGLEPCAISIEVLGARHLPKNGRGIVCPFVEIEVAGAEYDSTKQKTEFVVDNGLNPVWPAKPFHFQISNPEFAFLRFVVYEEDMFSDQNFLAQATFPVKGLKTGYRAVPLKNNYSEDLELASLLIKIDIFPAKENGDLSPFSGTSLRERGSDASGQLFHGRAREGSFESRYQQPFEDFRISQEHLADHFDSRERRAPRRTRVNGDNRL

Chain of Induced myeloid leukemia cell differentiation protein Mcl-1 (Q07820 whole entry): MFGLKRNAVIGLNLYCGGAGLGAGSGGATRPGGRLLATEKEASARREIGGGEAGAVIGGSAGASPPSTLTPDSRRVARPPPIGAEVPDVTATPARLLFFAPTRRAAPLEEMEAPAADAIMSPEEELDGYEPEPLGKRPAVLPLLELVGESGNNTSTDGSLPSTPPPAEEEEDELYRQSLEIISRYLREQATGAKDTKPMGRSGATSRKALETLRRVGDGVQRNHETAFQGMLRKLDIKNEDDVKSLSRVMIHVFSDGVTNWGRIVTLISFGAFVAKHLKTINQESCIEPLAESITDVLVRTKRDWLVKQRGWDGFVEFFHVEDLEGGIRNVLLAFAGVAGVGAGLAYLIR
Chain of Albumin (P02769 whole entry): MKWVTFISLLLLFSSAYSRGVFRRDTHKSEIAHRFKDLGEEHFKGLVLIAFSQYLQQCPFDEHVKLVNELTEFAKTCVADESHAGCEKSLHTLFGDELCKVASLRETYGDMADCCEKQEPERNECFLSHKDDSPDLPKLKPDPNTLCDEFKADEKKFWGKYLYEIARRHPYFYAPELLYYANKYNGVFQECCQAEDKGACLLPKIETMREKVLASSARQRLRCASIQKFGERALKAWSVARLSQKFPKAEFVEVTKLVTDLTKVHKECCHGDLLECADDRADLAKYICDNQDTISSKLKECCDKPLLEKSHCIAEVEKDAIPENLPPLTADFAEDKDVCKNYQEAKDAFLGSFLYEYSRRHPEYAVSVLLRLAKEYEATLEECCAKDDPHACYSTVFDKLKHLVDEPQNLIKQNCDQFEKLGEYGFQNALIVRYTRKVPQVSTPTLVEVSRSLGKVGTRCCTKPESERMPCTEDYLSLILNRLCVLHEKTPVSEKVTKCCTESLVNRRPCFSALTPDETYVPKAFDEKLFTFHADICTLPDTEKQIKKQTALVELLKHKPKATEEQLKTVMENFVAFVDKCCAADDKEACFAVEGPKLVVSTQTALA

**Q.** Which IC50 [1] does the source give for COC(=O)c1ccc(-c2ccc(C(c3c(C)[nH][nH]c3=O)c3c(C)[nH][nH]c3=O)o2)cc1 here?
**A.** 74.3 µM (inactive)

**Q.** For Oc1ccc(/C=N/NC(=S)Nc2cccnc2)c(O)c1O, which IC50 [2] is on record?
**A.** 19.5 µM (active)

**Q.** What about the EC50 [3] of the same compound?
**A.** > 99 µM (inactive)

**Q.** What about the IC50 (Albumin) of the same compound?
**A.** > 94.1 µM (inactive)

**Q.** What about the IC50 [4] of the same compound?
**A.** > 122 µM (inactive)
